In patent US20250177586A1, “HEATING APPARATUS AND METHODS” (ACADEMISCH ZIEKENHUIS LEIDEN (H.O.D.N. LUMC), priority 2018, published 2025):

System: S. Epidermidis biofilm
Test: Eradication of biofilm from titanium alloy coupon by induction-heating thermal shock followed by antibiotics (FIG. 13)
Type: cell-based
Conditions: vancomycine 10 mg/L and rifampicine 1 mg together, 24 hours exposure in BHI culture medium, after thermal shock of 65° C. from 3.5 minutes with induction heating, N=6 or greater
Text: N=6 or greater for each group.

Row | SMILES | eradication of biofilm (active count, Log (CFU/cm^2))
1 | CN[C@H](CC(C)C)C(=O)N[C@H]1C(=O)N[C@@H](CC(N)=O)C(=O)N[C@H]2C(=O)N[C@H]3C(=O)N[C@H](C(=O)N[C@H](C(=O)O)c4cc(O)cc(O)c4-c4cc3ccc4O)[C@H](O)c3ccc(c(Cl)c3)Oc3cc2cc(c3O[C@@H]2O[C@H](CO)[C@@H](O)[C@H](O)[C@H]2O[C@H]2C[C@](C)(N)[C@H](O)[C@H](C)O2)Oc2ccc(cc2Cl)[C@H]1O [vancomycine] | full eradication
2 | CO[C@H]1/C=C/O[C@@]2(C)Oc3c(C)c(O)c4c(O)c(c(/C=N/N5CCN(C)CC5)c(O)c4c3C2=O)NC(=O)/C(C)=C\C=C\[C@H](C)[C@H](O)[C@@H](C)[C@@H](O)[C@@H](C)[C@H](OC(C)=O)[C@@H]1C [rifampicine] | full eradication
